≈ marks a conversion by molar mass, not a printed value.
Tests used:
[1] = cited from earlier work
[2] = mDSC glass transition of dispersions; format: physicochemical; conditions: single glass transition above 75° C., Yes/No
[3] = molecular target: H1 histaminergic receptors (Homo sapiens, UniProt P35367); conditions: cited from earlier work
[4] = molecular target: T1, 5-HT2C receptors (Homo sapiens, UniProt P28335); conditions: cited from earlier work
T1 sequence (P28335 33-458): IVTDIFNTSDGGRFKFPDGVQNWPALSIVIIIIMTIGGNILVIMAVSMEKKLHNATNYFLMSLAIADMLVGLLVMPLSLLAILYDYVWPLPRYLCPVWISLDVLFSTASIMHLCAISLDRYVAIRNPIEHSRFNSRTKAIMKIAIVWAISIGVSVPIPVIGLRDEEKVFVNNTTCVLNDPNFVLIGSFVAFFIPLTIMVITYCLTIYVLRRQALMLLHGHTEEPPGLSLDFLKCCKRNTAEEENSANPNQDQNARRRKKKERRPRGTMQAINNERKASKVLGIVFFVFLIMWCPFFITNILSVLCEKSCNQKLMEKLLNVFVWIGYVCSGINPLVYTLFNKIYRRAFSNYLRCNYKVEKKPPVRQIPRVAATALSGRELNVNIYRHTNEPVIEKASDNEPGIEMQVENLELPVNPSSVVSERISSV

[5] = preliminary screen of dispersions by XRPD and appearance; format: physicochemical; conditions: XRPD, as generated by lyophilization; ITI-007 free base/excipient
Description: X-ray powder diffraction (XRPD): The X-ray powder diffraction studies are performed using a PANalytical X'Pert PRO MPD diffractometer using an incident beam of Cu radiation produced using an Optix long, fine-focus source. An elliptically graded multilayer mirror is used to focus Cu Kα X-ray radiation through the specimen and onto the detector. Prior to analysis, a silicon specimen is analyzed to verify the observed position of the Si (111) peak (consistent with the NIST-certified position, NIST SM 640e). A specimen of the sample is sandwiched between 3-micron thick films and analyzed in transmission geometry. A beam-stop, short antiscatter extension, and antiscatter knife edge is used to minimize the background generated by the air. Soller slits for the incident and diffracted beams are used to minimize broadening from axial divergence. Diffraction patterns are collected using a scanning position-sensitive detector (X'Celerator) located 240 mm from the specimen.

[6] = system: muscarinic receptors; conditions: cited from earlier work
[7] = solubility of ITI-007 free base in solvents; format: physicochemical
[8] = chemical stability of ITI-007 by HPLC over the seven-day study; format: physicochemical; conditions: 7 days at 40° C./75% RH, normalized to content before the study
[9] = salt of U.S. Pat. No. 7,183,282

Chain of H1 histaminergic receptors (P35367 whole entry): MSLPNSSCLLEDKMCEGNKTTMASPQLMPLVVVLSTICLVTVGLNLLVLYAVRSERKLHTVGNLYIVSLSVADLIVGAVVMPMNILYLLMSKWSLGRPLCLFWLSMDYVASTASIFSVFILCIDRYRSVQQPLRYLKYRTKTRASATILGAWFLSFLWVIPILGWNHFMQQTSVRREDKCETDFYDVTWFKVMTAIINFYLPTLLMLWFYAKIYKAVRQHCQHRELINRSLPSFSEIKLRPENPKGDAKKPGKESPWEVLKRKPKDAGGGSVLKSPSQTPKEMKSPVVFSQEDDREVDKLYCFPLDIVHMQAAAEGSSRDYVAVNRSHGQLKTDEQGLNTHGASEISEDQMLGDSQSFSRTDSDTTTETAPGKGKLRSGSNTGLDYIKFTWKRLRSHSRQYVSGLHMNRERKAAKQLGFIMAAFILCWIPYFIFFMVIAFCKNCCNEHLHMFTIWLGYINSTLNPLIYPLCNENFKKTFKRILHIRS

Row | Tg > 75° C. [2] | X-ray Amorphous Solids? [5] | solubility ([7]; 2,2,2-trifluoroethanol (TFE), organic solvent or mixture) | solubility ([7]; acetone, organic solvent or mixture) | solubility ([7]; dioxane, organic solvent or mixture) | solubility ([7]; ethanol, organic solvent or mixture) | solubility ([7]; methanol, organic solvent or mixture) | solubility ([7]; tert-butanol/water mixtures, aqueous with cosolvent or surfactant or cyclodextrin) | % ITI-007 change by HPLC [8] | Compound | hygroscopicity [1, 9] | stability [1, 9] | binding [3] | binding [4] | binding [6] | stability in solution ([7]; solutions in TFE) | solubility in water ([1]; free base form)
1 |  |  |  |  |  |  |  |  |  | CN1CCN2c3c(cccc31)C1CN(CCCC(=O)c3ccc(F)cc3)CCC12.Cl (stereo not shown) [hydrochloride salt form of ITI-007] | hygroscopic | poor stability |  |  |  |  | 
2 | No | No | > 50 mg/mL | > 50 mg/mL | > 50 mg/mL | > 50 mg/mL | > 50 mg/mL | 5 to 50 mg/mL (≈ 12.7 to 127 mM) | −5.97% | CN1CCN2c3c(cccc31)[C@@H]1CN(CCCC(=O)c3ccc(F)cc3)CC[C@@H]12 [ITI-007, 1-(4-fluoro-phenyl)-4-((6bR,10aS)-3-methyl-2,3,6b,9,10,10a-hexahydro-1H,7H-pyrido[3′,4′:4,5]pyrrolo[1,2,3-de]quinoxalin-8-yl)-butan-1-one] |  |  | negligible binding | negligible binding | negligible binding | rapidly discolor due to decomposition of the active | poor solubility in water
